According to the supplement of paper PMC11061612:

Assays:
Experiment in all cases: combination Emax (second highest fraction inhibited in the dose matrix, 72 h); higher = more inhibition; extreme values may be limits of the assay
IM-9 (Non-Cancerous) = test system: IM-9 (Non-Cancerous)
In short: (§1)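 Bliss excess equals the observed combination effect minus the expected value EA + EB − EA·EB, where EA and EB are the effects of each agent alone. Combination Emax is the second-highest inhibition within the matrix. Inhibition was scaled from CellTiter-Glo 2.0 luminescence, with 0 set by vehicle wells and 1 by blank wells, after 72 hours of two-drug dosing of cells plated in 1536-well plates.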

[1] = test system: huH-1 (Hepatocellular Carcinoma)
In short: as §1

[2] = test system: A253 (Head and Neck Carcinoma)
In short: as §1

EW-16 (Ewing's Sarcoma) = test system: EW-16 (Ewing's Sarcoma)
In short: as §1

[3] = test system: OACp4C (Esophageal Adenocarcinoma)
In short: as §1

[4] = test system: LU-165 (Small Cell Lung Carcinoma)
In short: as §1

[5] = test system: 22RV1 (Prostate Carcinoma)
In short: as §1

RH-41 (Rhabdomyosarcoma) = test system: RH-41 (Rhabdomyosarcoma)
In short: as §1

[6] = test system: Jurkat (T-Lymphoblastic Leukemia)
In short: as §1

[7] = test system: GA-10 (Burkitt's Lymphoma)
In short: as §1

[8] = test system: GCT (Other Solid Carcinomas)
In short: as §1

[9] = test system: NCI-H716 (Colorectal Carcinoma)
In short: as §1

[10] = test system: DU-4475 (Breast Carcinoma)
In short: as §1

[11] = test system: JHH-2 (Hepatocellular Carcinoma)
In short: as §1

EB2 (Burkitt's Lymphoma) = test system: EB2 (Burkitt's Lymphoma)
In short: as §1

PEO1 (Ovarian Carcinoma) = test system: PEO1 (Ovarian Carcinoma)
In short: as §1

[12] = test system: G-402 (Other Solid Carcinomas)
In short: as §1

[13] = test system: NCI-H441 (Lung Adenocarcinoma)
In short: as §1

COLO-792 (Melanoma) = test system: COLO-792 (Melanoma)
In short: as §1

KP-N-YN (Neuroblastoma) = test system: KP-N-YN (Neuroblastoma)
In short: as §1

Compound	combination Emax (IM-9 (Non-Cancerous))	combination Emax [1]	combination Emax [2]	combination Emax (EW-16 (Ewing's Sarcoma))	combination Emax [3]	combination Emax [4]	combination Emax [5]	combination Emax (RH-41 (Rhabdomyosarcoma))	combination Emax [6]	combination Emax [7]	combination Emax [8]	combination Emax [9]	combination Emax [10]	combination Emax [11]	combination Emax (EB2 (Burkitt's Lymphoma))	combination Emax (PEO1 (Ovarian Carcinoma))	combination Emax [12]	combination Emax [13]	combination Emax (COLO-792 (Melanoma))	combination Emax (KP-N-YN (Neuroblastoma))
Cc1c2c(nn1C)CSCc1cc(n(C)n1)CSc1cc(c3ccccc3c1)OCCCc1c(C(=O)O)n(C)c3c-2c(Cl)ccc13 [AZD5991] + C1CN(CCC1(C(=O)N[C@@H](CCO)C2=CC=C(C=C2)Cl)N)C3=NC=NC4=C3C=CN4 [Capivasertib] (first compound max 1 µM, 7x7, partner max 3 µM)	0.756	0.227	0.92	0.195	0.783	0.261	0.706	1	1	0.858	0.438	0.401	0.24	0.604	0.479	0.207	0.984	0.237	0.988	0.256
Cc1c2c(nn1C)CSCc1cc(n(C)n1)CSc1cc(c3ccccc3c1)OCCCc1c(C(=O)O)n(C)c3c-2c(Cl)ccc13 [AZD5991] + C=CCn1c(=O)c2cnc(Nc3ccc(N4CCN(C)CC4)cc3)nc2n1-c1cccc(C(C)(C)O)n1 [AZD1775] (first compound max 1 µM, partner max 1 µM)	0.986	0.552	0.904	0.507	0.951	0.441	0.453	1	0.972	1	0.556	0.611	0.977	0.58	0.769	0.397	0.965	0.471	0.988	0.912
Cc1c2c(nn1C)CSCc1cc(n(C)n1)CSc1cc(c3ccccc3c1)OCCCc1c(C(=O)O)n(C)c3c-2c(Cl)ccc13 [AZD5991] + CC1(C)CCC(CN2CCN(c3ccc(C(=O)NS(=O)(=O)c4ccc(NCC5CCOCC5)c([N+](=O)[O-])c4)c(Oc4cnc5[nH]ccc5c4)c3)CC2)=C(c2ccc(Cl)cc2)C1 [Venetoclax] (first compound max 1 µM, 7x7, partner max 1 µM)	1	0.162	0.868	0.273	0.74	0.291	0.462	1	0.888	0.64	0.288	0.176	0.447	0.218	0.332	0.164	0.926	0.214	0.997	0.817
Cc1c2c(nn1C)CSCc1cc(n(C)n1)CSc1cc(c3ccccc3c1)OCCCc1c(C(=O)O)n(C)c3c-2c(Cl)ccc13 [AZD5991] + C[C@@H]1COCCN1C2=NC(=NC(=C2)C3(CC3)[S@](=N)(=O)C)C4=C5C=CNC5=NC=C4 [AZD6738] (first compound max 1 µM, 7x7, partner max 10 µM)	1	0.623	0.976	0.756	0.851	0.321	0.71	1	0.974	0.998	0.411	0.574	0.978	0.703	0.8	0.522	0.995	0.39	1	0.968
Cc1c2c(nn1C)CSCc1cc(n(C)n1)CSc1cc(c3ccccc3c1)OCCCc1c(C(=O)O)n(C)c3c-2c(Cl)ccc13 [AZD5991] + C[C@@H](Nc1cc(F)cc(F)c1)c1cc(C(=O)N(C)C)cc2c(=O)cc(N3CCOCC3)oc12 [AZD8186] (first compound max 1 µM, 7x7, partner max 3 µM)	0.671	0.192	0.777	0.281	0.664	0.226	0.48	0.99	0.913	0.869	0.454	0.265	0.117	0.768	0.467	0.257	0.942	0.34	0.999	0.171
Cc1c2c(nn1C)CSCc1cc(n(C)n1)CSc1cc(c3ccccc3c1)OCCCc1c(C(=O)O)n(C)c3c-2c(Cl)ccc13 [AZD5991] + Cc1cc2ncnn2cc1Nc1ncc2c(n1)n(C1CCOCC1)c(=O)n2C [AZD7648] (first compound max 1 µM, 7x7, partner max 10 µM)	0.561	0.337	0.849	0.299	0.485	0.265	0.575	1	0.951	0.851	0.352	0.228	0.297	0.596	0.465	0.178	0.939	0.259	1	0.228
Cc1c2c(nn1C)CSCc1cc(n(C)n1)CSc1cc(c3ccccc3c1)OCCCc1c(C(=O)O)n(C)c3c-2c(Cl)ccc13 [AZD5991] + Cn1cnc2c(F)c(Nc3ccc(Br)cc3Cl)c(C(=O)NOCCO)cc21 [Selumetinib] (first compound max 1 µM, 7x7, partner max 3 µM)	0.848	0.152	0.944	0.258	0.835	0.161	0.498	1	0.927	0.751	0.427	0.515	1	0.342	0.212	0.25	0.955	0.405	1	0.204
C[C@@H]1COCCN1c1cc(C2([S@](C)(=N)=O)CC2)nc(-c2ccnc3[nH]ccc23)n1 [AZD6738] + O=C(c1cc(Cc2n[nH]c(=O)c3ccccc23)ccc1F)N1CCN(C(=O)C2CC2)CC1 [Olaparib] (first compound max 10 µM, 7x7, partner max 10 µM)	0.986	0.685	0.806	0.808	0.71	0.309	0.631	0.808	0.965	0.942	0.392	0.468	0.975	0.674	0.813	0.585	0.627	0.476	0.278	0.76
NC1(C(=O)N[C@@H](CCO)c2ccc(Cl)cc2)CCN(c2ncnc3[nH]ccc23)CC1 [Capivasertib] + CC(=O)c1c(C)c2cnc(Nc3ccc(N4CCNCC4)cn3)nc2n(C2CCCC2)c1=O [Palbociclib] (first compound max 10 µM, 7x7, partner max 10 µM)	0.706	0.374	0.673	0.44	0.858	0.429	0.639	0.945	0.849	0.97	0.718	0.49	0.295	0.608	0.566	0.415	0.605	0.348	0.465	0.301
NC1(C(=O)N[C@@H](CCO)c2ccc(Cl)cc2)CCN(c2ncnc3[nH]ccc23)CC1 [Capivasertib] + CC(C)n1c(=O)n(C)c2cnc3cc(F)c(-c4ccc(OCCCN5CCCCC5)nc4)cc3c21 [AZD1390] (first compound max 10 µM, 7x7, partner max 0.3 µM)	0.577	0.299	0.559	0.296	0.818	0.464	0.527	0.921	0.697	0.74	0.6	0.45	0.331	0.539	0.61	0.32	0.398	0.252	0.444	0.359
NC1(C(=O)N[C@@H](CCO)c2ccc(Cl)cc2)CCN(c2ncnc3[nH]ccc23)CC1 [Capivasertib] + CCN(CCO)CCCOc1ccc2c(Nc3cc(CC(=O)Nc4cccc(F)c4)[nH]n3)ncnc2c1 [AZD2811] (first compound max 10 µM, 7x7, partner max 1 µM)	0.933	0.384	0.695	0.634	0.897	0.47	0.544	0.943	0.717	0.918	0.636	0.457	0.679	0.587	0.653	0.418	0.658	0.317	0.661	0.608
NC1(C(=O)N[C@@H](CCO)c2ccc(Cl)cc2)CCN(c2ncnc3[nH]ccc23)CC1 [Capivasertib] + COc1nnc2ccc(N3CCC(c4ccc(OCCN5CCN(C)C(=O)[C@H]5C)cc4)CC3)nn12 [AZD5153] (first compound max 10 µM, 7x7, partner max 1 µM)	0.811	0.358	0.75	0.515	0.905	0.712	0.649	1	0.992	0.927	0.695	0.616	0.979	0.605	0.707	0.453	0.723	0.379	0.94	0.478
NC1(C(=O)N[C@@H](CCO)c2ccc(Cl)cc2)CCN(c2ncnc3[nH]ccc23)CC1 [Capivasertib] + C[C@@H]1COCCN1C2=NC(=NC(=C2)C3(CC3)[S@](=N)(=O)C)C4=C5C=CNC5=NC=C4 [AZD6738] (first compound max 10 µM, 7x7, partner max 10 µM)	0.979	0.692	0.852	0.784	0.979	0.657	0.76	0.976	0.961	1	0.673	0.555	0.987	0.769	0.831	0.616	0.771	0.448	0.549	0.962
